Measured values as given in ChEMBL document CHEMBL4507278 (2021).

Assays:
[1] = molecular target: Serine/threonine-protein kinase MARK2 (Homo sapiens) (UniProt Q7KZI7); settings: Compound concentration 1000.0 nM
[2] = molecular target: TGF-beta receptor type-2 (Homo sapiens) (UniProt P37173); settings: Compound concentration 1000.0 nM
[3] = molecular target: Tyrosine-protein kinase Lyn (Homo sapiens) (UniProt P07948); settings: Compound concentration 1000.0 nM
[4] = molecular target: Calcium/calmodulin-dependent protein kinase kinase 2 (Homo sapiens) (UniProt Q96RR4); settings: Compound concentration 1000.0 nM
[5] = molecular target: Serine/threonine-protein kinase 24 (Homo sapiens) (UniProt Q9Y6E0); settings: Compound concentration 1000.0 nM
[6] = molecular target: Serine/threonine-protein kinase 17A (Homo sapiens) (UniProt Q9UEE5); settings: Compound concentration 1000.0 nM
[7] = molecular target: Serine/threonine-protein kinase Nek9 (Homo sapiens) (UniProt Q8TD19); settings: Compound concentration 1000.0 nM
[8] = molecular target: Mitogen-activated protein kinase kinase kinase 12 (Homo sapiens) (UniProt Q12852); settings: Compound concentration 1000.0 nM
[9] = molecular target: Myosin-IIIa (Homo sapiens) (UniProt Q8NEV4); settings: Compound concentration 1000.0 nM
[10] = molecular target: Serine/threonine-protein kinase pim-3 (Homo sapiens) (UniProt Q86V86); settings: Compound concentration 1000.0 nM
[11] = molecular target: STE20-like serine/threonine-protein kinase (Homo sapiens) (UniProt Q9H2G2); settings: Compound concentration 1000.0 nM
[12] = molecular target: Receptor tyrosine-protein kinase erbB-3 (Homo sapiens) (UniProt P21860); settings: Compound concentration 1000.0 nM
[13] = molecular target: Casein kinase I isoform epsilon (Homo sapiens) (UniProt P49674); settings: Compound concentration 1000.0 nM
[14] = molecular target: Mast/stem cell growth factor receptor Kit (Homo sapiens) (UniProt P10721); settings: Compound concentration 1000.0 nM
[15] = molecular target: Tyrosine-protein kinase SYK (Homo sapiens) (UniProt P43405); settings: Compound concentration 1000.0 nM
[16] = molecular target: Mitogen-activated protein kinase kinase kinase 20 (Homo sapiens) (UniProt Q9NYL2); settings: Compound concentration 1000.0 nM
[17] = molecular target: Fibroblast growth factor receptor 2 (Homo sapiens) (UniProt P21802); settings: Compound concentration 1000.0 nM
[18] = molecular target: Ribosomal protein S6 kinase alpha-2 (Homo sapiens) (UniProt Q15349); settings: Compound concentration 1000.0 nM
[19] = molecular target: Serine/threonine-protein kinase 16 (Homo sapiens) (UniProt O75716); settings: Compound concentration 1000.0 nM
[20] = tested on: ALK tyrosine kinase receptor (Homo sapiens), Q9UM73 [L1196M]; settings: Compound concentration 1000.0 nM
[21] = molecular target: Ribosomal protein S6 kinase alpha-3 (Homo sapiens) (UniProt P51812); settings: Compound concentration 1000.0 nM
[22] = molecular target: Mitogen-activated protein kinase kinase kinase 10 (Homo sapiens) (UniProt Q02779); settings: Compound concentration 1000.0 nM
[23] = molecular target: ALK tyrosine kinase receptor (Homo sapiens) (UniProt Q9UM73); settings: Compound concentration 1000.0 nM
[24] = molecular target: Serine/threonine-protein kinase RIO3 (Homo sapiens) (UniProt O14730); settings: Compound concentration 1000.0 nM
[25] = molecular target: Receptor tyrosine-protein kinase erbB-4 (Homo sapiens) (UniProt Q15303); settings: Compound concentration 1000.0 nM
[26] = molecular target: Serine/threonine-protein kinase PknB (Mycobacterium tuberculosis) (UniProt P9WI81); settings: Compound concentration 1000.0 nM
[27] = molecular target: Serine/threonine-protein kinase WNK2 (Homo sapiens) (UniProt Q9Y3S1); settings: Compound concentration 1000.0 nM
[28] = tested on: Tyrosine-protein kinase ABL1 (Homo sapiens), P00519 [F317L]; settings: Compound concentration 1000.0 nM
[29] = molecular target: SRSF protein kinase 2 (Homo sapiens) (UniProt P78362); settings: Compound concentration 1000.0 nM
[30] = tested on: Phosphatidylinositol 4,5-bisphosphate 3-kinase catalytic subunit alpha isoform (Homo sapiens), P42336 [I800L]; settings: Compound concentration 1000.0 nM
[31] = molecular target: Tyrosine-protein kinase ITK/TSK (Homo sapiens) (UniProt Q08881); settings: Compound concentration 1000.0 nM
[32] = molecular target: Cyclin-dependent kinase 11A (Homo sapiens) (UniProt Q9UQ88); settings: Compound concentration 1000.0 nM
[33] = molecular target: Serine/threonine-protein kinase D3 (Homo sapiens) (UniProt O94806); settings: Compound concentration 1000.0 nM
[34] = molecular target: Sigma intracellular receptor 2 (Homo sapiens) (UniProt Q5BJF2); settings: Compound concentration 10.0 uM
[35] = molecular target: MAP kinase-interacting serine/threonine-protein kinase 2 (Homo sapiens) (UniProt Q9HBH9); settings: Compound concentration 1000.0 nM
[36] = molecular target: Mitogen-activated protein kinase kinase kinase 13 (Homo sapiens) (UniProt O43283); settings: Compound concentration 1000.0 nM
[37] = molecular target: Cyclin-dependent kinase 18 (Homo sapiens) (UniProt Q07002); settings: Compound concentration 1000.0 nM
[38] = molecular target: Receptor-interacting serine/threonine-protein kinase 4 (Homo sapiens) (UniProt P57078); settings: Compound concentration 1000.0 nM
[39] = molecular target: Mitogen-activated protein kinase kinase kinase kinase 2 (Homo sapiens) (UniProt Q12851); settings: Compound concentration 1000.0 nM
[40] = molecular target: Interleukin-1 receptor-associated kinase 3 (Homo sapiens) (UniProt Q9Y616); settings: Compound concentration 1000.0 nM
[41] = molecular target: Rho-associated protein kinase 1 (Homo sapiens) (UniProt Q13464); settings: Compound concentration 1000.0 nM
[42] = molecular target: Serine/threonine-protein kinase WNK1 (Homo sapiens) (UniProt Q9H4A3); settings: Compound concentration 1000.0 nM
[43] = molecular target: Death-associated protein kinase 3 (Homo sapiens) (UniProt O43293); settings: Compound concentration 1000.0 nM
[44] = molecular target: Discoidin domain-containing receptor 2 (Homo sapiens) (UniProt Q16832); settings: Compound concentration 1000.0 nM
[45] = molecular target: Mitogen-activated protein kinase kinase kinase 14 (Homo sapiens) (UniProt Q99558); settings: Compound concentration 1000.0 nM

Sequence of Death-associated protein kinase 3 (Homo sapiens) (O43293 whole entry, looked up, the tested form may be a part): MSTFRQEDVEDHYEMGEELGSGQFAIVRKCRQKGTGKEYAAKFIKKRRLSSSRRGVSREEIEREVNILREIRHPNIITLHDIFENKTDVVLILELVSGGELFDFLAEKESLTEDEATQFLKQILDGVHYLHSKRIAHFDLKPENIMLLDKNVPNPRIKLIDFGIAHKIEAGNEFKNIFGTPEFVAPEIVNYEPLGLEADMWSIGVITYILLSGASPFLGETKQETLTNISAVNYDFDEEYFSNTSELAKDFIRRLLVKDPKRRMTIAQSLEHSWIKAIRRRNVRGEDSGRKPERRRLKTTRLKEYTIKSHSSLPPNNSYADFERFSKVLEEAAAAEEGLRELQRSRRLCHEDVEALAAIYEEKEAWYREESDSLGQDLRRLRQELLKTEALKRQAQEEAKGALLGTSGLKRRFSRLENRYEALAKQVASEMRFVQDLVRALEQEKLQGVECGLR
Sequence of Mitogen-activated protein kinase kinase kinase 10 (Homo sapiens) (Q02779 whole entry, looked up): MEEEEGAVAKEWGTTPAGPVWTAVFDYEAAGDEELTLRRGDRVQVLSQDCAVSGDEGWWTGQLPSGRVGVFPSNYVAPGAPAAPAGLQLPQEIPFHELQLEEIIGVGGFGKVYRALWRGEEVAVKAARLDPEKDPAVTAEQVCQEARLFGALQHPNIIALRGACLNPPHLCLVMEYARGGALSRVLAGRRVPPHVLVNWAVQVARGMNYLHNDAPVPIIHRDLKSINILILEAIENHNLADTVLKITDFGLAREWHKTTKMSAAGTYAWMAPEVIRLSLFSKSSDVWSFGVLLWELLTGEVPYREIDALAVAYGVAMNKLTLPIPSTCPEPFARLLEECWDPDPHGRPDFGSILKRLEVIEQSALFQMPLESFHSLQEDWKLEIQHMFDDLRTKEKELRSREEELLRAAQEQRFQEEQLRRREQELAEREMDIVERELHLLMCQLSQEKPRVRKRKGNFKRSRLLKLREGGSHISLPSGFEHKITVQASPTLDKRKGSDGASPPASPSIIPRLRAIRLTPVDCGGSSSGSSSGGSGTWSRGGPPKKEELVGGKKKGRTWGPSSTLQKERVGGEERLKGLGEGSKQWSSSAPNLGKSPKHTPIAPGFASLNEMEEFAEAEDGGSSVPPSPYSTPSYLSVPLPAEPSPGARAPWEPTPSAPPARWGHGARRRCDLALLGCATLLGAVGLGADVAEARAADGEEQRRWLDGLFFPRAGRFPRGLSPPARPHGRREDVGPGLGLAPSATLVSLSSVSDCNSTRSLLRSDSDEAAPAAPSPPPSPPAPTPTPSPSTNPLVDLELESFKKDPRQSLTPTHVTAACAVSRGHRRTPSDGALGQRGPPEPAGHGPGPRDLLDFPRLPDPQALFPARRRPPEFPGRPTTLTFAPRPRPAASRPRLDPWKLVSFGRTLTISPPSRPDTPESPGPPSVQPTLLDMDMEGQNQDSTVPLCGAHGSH
Sequence of Interleukin-1 receptor-associated kinase 3 (Homo sapiens) (Q9Y616 whole entry): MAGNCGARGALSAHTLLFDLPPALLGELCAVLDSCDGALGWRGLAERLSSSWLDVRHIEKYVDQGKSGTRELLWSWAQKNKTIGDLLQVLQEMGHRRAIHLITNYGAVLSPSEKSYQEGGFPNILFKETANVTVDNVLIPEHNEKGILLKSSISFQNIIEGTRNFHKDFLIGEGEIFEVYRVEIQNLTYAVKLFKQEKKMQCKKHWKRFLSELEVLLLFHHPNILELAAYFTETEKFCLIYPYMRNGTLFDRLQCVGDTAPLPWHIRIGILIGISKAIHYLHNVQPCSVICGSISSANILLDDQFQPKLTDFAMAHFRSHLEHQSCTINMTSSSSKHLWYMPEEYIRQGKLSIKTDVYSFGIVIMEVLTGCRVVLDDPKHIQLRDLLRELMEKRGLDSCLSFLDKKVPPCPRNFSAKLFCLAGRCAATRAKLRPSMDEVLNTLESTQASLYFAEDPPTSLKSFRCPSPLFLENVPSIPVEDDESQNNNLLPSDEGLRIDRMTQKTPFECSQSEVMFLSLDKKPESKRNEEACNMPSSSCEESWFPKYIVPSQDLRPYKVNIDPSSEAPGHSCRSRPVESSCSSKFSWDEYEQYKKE
Sequence of Serine/threonine-protein kinase 16 (Homo sapiens) (O75716 whole entry): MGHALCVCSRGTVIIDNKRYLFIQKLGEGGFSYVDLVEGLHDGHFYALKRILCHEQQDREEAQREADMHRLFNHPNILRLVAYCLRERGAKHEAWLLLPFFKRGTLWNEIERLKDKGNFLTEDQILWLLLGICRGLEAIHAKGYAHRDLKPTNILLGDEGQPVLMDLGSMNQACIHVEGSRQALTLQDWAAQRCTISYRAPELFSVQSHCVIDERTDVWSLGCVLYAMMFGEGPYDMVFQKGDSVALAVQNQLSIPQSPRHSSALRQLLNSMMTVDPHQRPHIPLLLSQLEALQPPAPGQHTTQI
Sequence of Receptor tyrosine-protein kinase erbB-4 (Homo sapiens) (Q15303 whole entry): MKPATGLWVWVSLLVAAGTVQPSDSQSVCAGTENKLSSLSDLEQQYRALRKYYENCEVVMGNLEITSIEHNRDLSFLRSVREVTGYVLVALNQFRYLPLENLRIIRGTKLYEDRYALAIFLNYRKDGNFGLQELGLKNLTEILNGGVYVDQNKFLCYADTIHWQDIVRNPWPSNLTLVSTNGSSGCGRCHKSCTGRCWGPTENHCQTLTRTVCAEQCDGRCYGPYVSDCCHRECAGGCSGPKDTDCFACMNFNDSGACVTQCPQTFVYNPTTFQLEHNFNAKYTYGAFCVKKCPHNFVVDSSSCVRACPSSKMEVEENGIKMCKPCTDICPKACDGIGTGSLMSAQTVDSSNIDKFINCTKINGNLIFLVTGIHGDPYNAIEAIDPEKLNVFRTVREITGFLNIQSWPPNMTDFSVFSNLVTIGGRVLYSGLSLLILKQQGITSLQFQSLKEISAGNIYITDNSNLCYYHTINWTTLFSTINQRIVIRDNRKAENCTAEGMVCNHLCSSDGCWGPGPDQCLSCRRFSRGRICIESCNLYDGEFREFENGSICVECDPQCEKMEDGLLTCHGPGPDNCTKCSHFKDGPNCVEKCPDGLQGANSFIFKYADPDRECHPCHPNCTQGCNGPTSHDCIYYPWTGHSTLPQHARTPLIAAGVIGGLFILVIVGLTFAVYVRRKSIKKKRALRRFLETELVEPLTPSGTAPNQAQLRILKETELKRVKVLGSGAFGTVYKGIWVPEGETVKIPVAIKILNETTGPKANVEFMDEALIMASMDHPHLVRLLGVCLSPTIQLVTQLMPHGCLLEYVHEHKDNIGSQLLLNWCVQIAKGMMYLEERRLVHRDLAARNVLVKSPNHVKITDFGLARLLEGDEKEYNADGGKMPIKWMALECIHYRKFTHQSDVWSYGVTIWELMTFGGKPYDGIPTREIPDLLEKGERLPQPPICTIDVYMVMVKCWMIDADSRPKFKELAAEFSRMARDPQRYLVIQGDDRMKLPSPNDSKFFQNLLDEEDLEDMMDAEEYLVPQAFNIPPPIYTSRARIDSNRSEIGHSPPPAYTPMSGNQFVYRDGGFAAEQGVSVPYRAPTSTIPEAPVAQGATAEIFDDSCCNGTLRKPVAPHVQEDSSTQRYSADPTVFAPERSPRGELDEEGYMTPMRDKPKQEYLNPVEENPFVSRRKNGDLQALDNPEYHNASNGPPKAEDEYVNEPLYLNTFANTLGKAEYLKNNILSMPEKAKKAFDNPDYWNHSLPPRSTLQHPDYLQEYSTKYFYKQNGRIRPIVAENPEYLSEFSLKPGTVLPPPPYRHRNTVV
Sequence of Tyrosine-protein kinase ABL1 (Homo sapiens), P00519 [F317L] (P00519 whole entry F317L): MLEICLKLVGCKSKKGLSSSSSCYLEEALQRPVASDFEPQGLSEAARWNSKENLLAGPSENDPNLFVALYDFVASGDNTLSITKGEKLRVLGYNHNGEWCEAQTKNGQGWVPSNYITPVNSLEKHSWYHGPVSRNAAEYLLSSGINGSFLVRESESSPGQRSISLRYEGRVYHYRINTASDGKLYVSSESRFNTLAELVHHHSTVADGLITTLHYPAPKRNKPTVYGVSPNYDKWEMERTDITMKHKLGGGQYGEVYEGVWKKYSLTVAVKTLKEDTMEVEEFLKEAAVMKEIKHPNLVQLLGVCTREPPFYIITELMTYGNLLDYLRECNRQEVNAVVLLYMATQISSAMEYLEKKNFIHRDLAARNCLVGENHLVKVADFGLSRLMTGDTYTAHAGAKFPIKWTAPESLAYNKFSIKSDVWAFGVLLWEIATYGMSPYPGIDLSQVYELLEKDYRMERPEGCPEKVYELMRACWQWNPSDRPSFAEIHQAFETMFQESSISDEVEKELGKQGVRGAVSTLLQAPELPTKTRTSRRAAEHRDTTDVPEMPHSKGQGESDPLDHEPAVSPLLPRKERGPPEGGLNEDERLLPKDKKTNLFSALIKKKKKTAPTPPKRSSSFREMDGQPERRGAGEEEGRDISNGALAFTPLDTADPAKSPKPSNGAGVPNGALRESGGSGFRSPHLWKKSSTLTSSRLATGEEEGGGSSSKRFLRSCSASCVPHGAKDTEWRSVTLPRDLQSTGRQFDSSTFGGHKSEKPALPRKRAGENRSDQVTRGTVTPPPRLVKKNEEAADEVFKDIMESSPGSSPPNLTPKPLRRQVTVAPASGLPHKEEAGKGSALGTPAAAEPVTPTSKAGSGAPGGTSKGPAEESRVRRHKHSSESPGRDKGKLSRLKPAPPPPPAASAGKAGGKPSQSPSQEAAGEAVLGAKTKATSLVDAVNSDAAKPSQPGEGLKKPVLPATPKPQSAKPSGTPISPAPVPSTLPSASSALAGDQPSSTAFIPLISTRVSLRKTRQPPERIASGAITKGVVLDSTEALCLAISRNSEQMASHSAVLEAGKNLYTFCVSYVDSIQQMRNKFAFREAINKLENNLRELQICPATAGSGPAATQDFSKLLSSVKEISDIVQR

CS(=O)(=O)c1cc(C2(NC(=O)c3cncc4c3cnn4-c3ccc(F)cc3)CC2)ccn1 [BI 639667]
inactive: residual activity [1] 100% | residual activity [2] 100% | residual activity [3] 100% | residual activity [4] 75% | residual activity [5] 82% | residual activity [6] 84% | residual activity [7] 100% | residual activity [8] 100% | residual activity [9] 85% | residual activity [10] 100% | residual activity [11] 100% | residual activity [12] 100% | residual activity [13] 84% | residual activity [14] 96% | residual activity [15] 100% | residual activity [16] 86% | residual activity [17] 100% | residual activity [18] 88% | residual activity [19] 93% | residual activity [20] 100% | residual activity [21] 100% | residual activity [22] 99% | residual activity [23] 100% | residual activity [24] 100% | residual activity [25] 100% | residual activity [26] 99% | residual activity [27] 75% | residual activity [28] 100% | residual activity [29] 100% | residual activity [30] 68% | residual activity [31] 89% | residual activity [32] 99% | residual activity [33] 97% | inhibition [34] 9.02% | residual activity [35] 100% | residual activity [36] 76% | residual activity [37] 100% | residual activity [38] 87% | residual activity [39] 100% | residual activity [40] 59% | residual activity [41] 79% | residual activity [42] 100% | residual activity [43] 98% | residual activity [44] 100% | residual activity [45] 61%

CS(=O)(=O)NCC[C@H](NC(=O)c1cncc2c1cnn2-c1ccc(F)cc1)c1ccnc(S(C)(=O)=O)c1 [BI 9307]
inactive: residual activity [1] 75% | residual activity [2] 96% | residual activity [3] 100% | residual activity [4] 100% | residual activity [5] 100% | residual activity [6] 100% | residual activity [7] 100% | residual activity [8] 82% | residual activity [9] 93% | residual activity [10] 100% | residual activity [11] 100% | residual activity [12] 100% | residual activity [13] 100% | residual activity [14] 100% | residual activity [15] 100% | residual activity [16] 88% | residual activity [17] 100% | residual activity [18] 100% | residual activity [19] 99% | residual activity [20] 100% | residual activity [21] 98% | residual activity [22] 75% | residual activity [23] 100% | residual activity [24] 100% | residual activity [25] 95% | residual activity [26] 93% | residual activity [27] 100% | residual activity [28] 100% | residual activity [29] 100% | residual activity [30] 61% | residual activity [31] 99% | residual activity [32] 100% | residual activity [33] 92% | inhibition [34] -1.85% | residual activity [35] 100% | residual activity [36] 100% | residual activity [37] 100% | residual activity [38] 88% | residual activity [39] 91% | residual activity [40] 89% | residual activity [41] 100% | residual activity [42] 100% | residual activity [43] 100% | residual activity [44] 100% | residual activity [45] 100%
